Values of other authors as cited in patent publication US20130303466A1, “Chemosensory Receptor Ligand-Based Therapies” (ELCELYX THERAPEUTICS, INC., priority 2010, published 2013).

molecular target: T1, sweet receptor (Homo sapiens, UniProt Q7RTX0+Q8TE23); settings: relative sweetness on a weight comparison basis to sucrose (= 1.0); ranges: relative sweetness varied with the concentration of sucrose; adapted from Kim et al., 2002
T1 sequence (Q8TE23 20-839): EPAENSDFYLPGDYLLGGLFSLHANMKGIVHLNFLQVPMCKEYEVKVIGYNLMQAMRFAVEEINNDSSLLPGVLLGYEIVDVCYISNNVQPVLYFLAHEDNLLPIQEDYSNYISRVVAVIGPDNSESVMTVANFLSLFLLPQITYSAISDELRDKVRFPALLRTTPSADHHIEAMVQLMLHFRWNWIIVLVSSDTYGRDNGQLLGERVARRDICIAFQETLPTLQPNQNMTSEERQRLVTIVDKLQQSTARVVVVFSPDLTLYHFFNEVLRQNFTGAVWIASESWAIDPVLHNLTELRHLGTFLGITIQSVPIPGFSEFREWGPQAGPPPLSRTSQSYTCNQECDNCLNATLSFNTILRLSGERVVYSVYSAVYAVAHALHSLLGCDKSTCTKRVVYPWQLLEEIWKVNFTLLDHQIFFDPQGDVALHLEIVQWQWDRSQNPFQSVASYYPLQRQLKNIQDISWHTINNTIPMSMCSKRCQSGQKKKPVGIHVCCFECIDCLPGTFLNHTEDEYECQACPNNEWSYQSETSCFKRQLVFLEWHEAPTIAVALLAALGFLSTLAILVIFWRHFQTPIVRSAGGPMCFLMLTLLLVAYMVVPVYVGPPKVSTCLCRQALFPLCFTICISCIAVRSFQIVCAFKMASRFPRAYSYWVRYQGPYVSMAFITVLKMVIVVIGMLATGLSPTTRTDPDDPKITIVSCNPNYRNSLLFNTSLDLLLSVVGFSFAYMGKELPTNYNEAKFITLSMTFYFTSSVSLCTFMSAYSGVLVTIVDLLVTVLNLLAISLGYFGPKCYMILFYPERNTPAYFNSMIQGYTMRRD
T1 sequence (Q7RTX0 21-852): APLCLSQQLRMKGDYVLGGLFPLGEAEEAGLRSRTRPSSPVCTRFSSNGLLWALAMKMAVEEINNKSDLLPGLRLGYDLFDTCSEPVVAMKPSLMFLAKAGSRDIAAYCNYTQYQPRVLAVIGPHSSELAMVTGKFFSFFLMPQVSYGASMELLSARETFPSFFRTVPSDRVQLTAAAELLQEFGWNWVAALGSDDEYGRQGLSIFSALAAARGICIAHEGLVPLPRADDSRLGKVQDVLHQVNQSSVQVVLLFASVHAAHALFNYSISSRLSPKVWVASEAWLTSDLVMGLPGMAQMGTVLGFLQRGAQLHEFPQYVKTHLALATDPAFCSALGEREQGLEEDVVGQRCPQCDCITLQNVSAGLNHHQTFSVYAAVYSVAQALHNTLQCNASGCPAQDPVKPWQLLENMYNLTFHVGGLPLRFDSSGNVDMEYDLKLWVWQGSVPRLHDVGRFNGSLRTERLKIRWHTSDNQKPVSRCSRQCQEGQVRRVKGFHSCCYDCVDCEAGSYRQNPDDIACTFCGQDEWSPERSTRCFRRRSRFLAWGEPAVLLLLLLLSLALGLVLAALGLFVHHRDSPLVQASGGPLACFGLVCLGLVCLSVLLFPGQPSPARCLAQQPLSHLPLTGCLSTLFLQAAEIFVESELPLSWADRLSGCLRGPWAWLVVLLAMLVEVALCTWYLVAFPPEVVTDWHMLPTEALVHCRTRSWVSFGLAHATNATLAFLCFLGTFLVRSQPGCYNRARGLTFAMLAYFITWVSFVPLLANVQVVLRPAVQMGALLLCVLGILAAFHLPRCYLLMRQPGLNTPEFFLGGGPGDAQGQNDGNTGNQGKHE

SMILES | Sweetness/potency
COc1c(O)cc2c(c1O)C(=O)[C@H](OC(C)=O)[C@@H](c1ccc(O)c(O)c1)O2 [(2R,3R)-2,3-Dihydro-5,7,3′,4′-tetrahydroxy-6-methoxy-3-O-acetylflavonol] | 25
COc1c(O)cc2c(c1O)C(=O)[C@H](O)[C@@H](c1ccc(O)c(O)c1)O2 [(2R,3R)-2,3-Dihydro-5,7,3′,4′-tetrahydroxy-6-methoxyflavonol] | 15
COc1c(O)cc2c(c1O)C(=O)[C@H](OC(C)=O)[C@@H](c1ccc(O)cc1)O2 [(2R,3R)-2,3-Dihydro-5,7,4′-trihydroxy-6-methoxy-3-O-acetylflavonol] | 20
CC(=O)O[C@H]1C(=O)c2c(O)cc(O)cc2O[C@@H]1c1ccc(O)c(O)c1 [(2R,3R)-Dihydroquercetin 3-O-acetate] | 80
CC(C)=CCC[C@](C)(O)[C@@H]1CCC(C)=CC1=O [(+)-Hernandulcin (11), (+)-Hernandulcin] | 1,500
CC1=CC[C@@H]([C@@H](C)[C@H]2CC[C@@]3(C)[C@@H]4CC[C@H]5[C@](C)(C(=O)O)[C@@H](O[C@@H]6O[C@H](CO)[C@@H](O)[C@H](O)[C@H]6O)CC[C@@]56C[C@@]46CC[C@]23C)OC1=O [Abrusoside A (42), Abrusoside A] | 30
COC(=O)[C@H]1O[C@@H](O[C@H]2[C@H](O[C@H]3CC[C@]45C[C@]46CC[C@]4(C)[C@@H]([C@H](C)[C@@H]7CC=C(C)C(=O)O7)CC[C@@]4(C)[C@@H]6CC[C@H]5[C@]3(C)C(=O)O)O[C@H](CO)[C@@H](O)[C@@H]2O)[C@H](O)[C@@H](O)[C@@H]1O [Abrusoside B (43), Abrusoside B] | 100
CC1=CC[C@@H]([C@@H](C)[C@H]2CC[C@@]3(C)[C@@H]4CC[C@H]5[C@](C)(C(=O)O)[C@@H](O[C@@H]6O[C@H](CO)[C@@H](O)[C@H](O)[C@H]6O[C@@H]6O[C@H](CO)[C@@H](O)[C@H](O)[C@H]6O)CC[C@@]56C[C@@]46CC[C@]23C)OC1=O [Abrusoside C (44), Abrusoside C] | 50
COc1ccc(C2Oc3cc(O)cc(O)c3C(=O)C2OC(C)=O)cc1O (stereo not drawn) [Dihydroquercetin 3-O-acetate 4′-methyl ether] | 400
Oc1cc2c(cc1O)[C@@H]1c3ccc(O)c(O)c3OC[C@]1(O)C2 [Hematoxylin (99), Hematoxylin] | 120
C=C(C)C1CC=C(/C=N/O)CC1 (stereo not drawn) [Perillartine (10), Perillartine] | 370

Further lines, results first:

Sweetness/potency | SMILES
75 | CC1=CC[C@@H]([C@@H](C)[C@H]2CC[C@@]3(C)[C@@H]4CC[C@H]5[C@](C)(C(=O)O)[C@@H](O[C@@H]6O[C@H](CO)[C@@H](O)[C@H](O)[C@H]6O[C@@H]6O[C@H](C(=O)O)[C@@H](O)[C@H](O)[C@H]6O)CC[C@@]56C[C@@]46CC[C@]23C)OC1=O [Abrusoside D (45), Abrusoside D]
5 | CC1(C)C[C@H]2C3=CC[C@@H]4[C@@]5(C)CC[C@H](O[C@@H]6O[C@H](CO[C@@H]7OC[C@H](O)[C@H](O)[C@H]7O[C@@H]7OC[C@@H](O)[C@H](O)[C@H]7O)[C@@H](O)[C@H](O)[C@H]6O)C(C)(C)[C@@H]5CC[C@@]4(C)[C@]3(C)C[C@@H](O)[C@@]23C[C@@H]1OC3=O [Albiziasaponin A (50), Albiziasaponin A]
300 | CC1(C(=O)O)CCC2(C)CCC3(C)C(=CC(=O)C4C5(C)CCC(OC6OC(C(=O)O)C(O)C(O)C6OC6OCC(O)(CO)C6O)C(C)(C)C5CCC43C)C2C1 (stereo not drawn) [Apioglycyrrhizin (55), Apioglycyrrhizin]
150 | CC1(C)[C@@H](O[C@H]2O[C@H](C(=O)O)[C@@H](O)[C@H](O)[C@H]2O[C@@H]2OC[C@H](O)[C@H](O)[C@H]2O)CC[C@]2(C)[C@H]3C(=O)C=C4[C@@H]5C[C@@](C)(C(=O)O)CC[C@]5(C)CC[C@@]4(C)[C@]3(C)CC[C@@H]12 [Araboglycyrrhizin (56), Araboglycyrrhizin]
77 | C/C(=C\CC[C@@H](C)[C@H]1CC[C@@]2(C)[C@@H]3CC=C4[C@@H](CC[C@H](O[C@@H]5O[C@H](CO)[C@@H](O)[C@H](O)[C@H]5O)C4(C)C)[C@]3(C)[C@H](O)C[C@]12C)CO[C@@H]1O[C@H](CO[C@@H]2O[C@H](CO)[C@@H](O)[C@H](O)[C@H]2O)[C@@H](O)[C@H](O)[C@H]1O [Carnosifloside VI (36), Carnosifloside VI]
55 | C/C(=C\CO)CCC1=C(C=O)CC(OC2OCC(O)C(O)C2O)C2C(C)(CO)CCCC12C (stereo not drawn) [Gaudichaudioside A (32), Gaudichaudioside A]
ca. 1 | C/C(=C\CC/C(C)=C/CO[C@@H]1O[C@H](CO)[C@@H](O)[C@H](O[C@@H]2O[C@@H](C)[C@H](O)[C@@H](O)[C@H]2O)[C@H]1O[C@@H]1O[C@@H](C)[C@H](O)[C@@H](O)[C@H]1O)CC/C=C(\C)CO[C@@H]1O[C@H](CO)[C@@H](O)[C@H](O[C@@H]2O[C@@H](C)[C@H](O)[C@@H](O)[C@H]2O)[C@H]1O[C@@H]1O[C@@H](C)[C@H](O)[C@@H](O)[C@H]1O [Mukurozioside IIb (13), Mukurozioside IIb]
300 | C[C@@H]1O[C@@H](O[C@H]2[C@H](Oc3cc(O)c(C(=O)CCc4ccc(O)cc4)c(O)c3)O[C@H](CO)[C@@H](O)[C@@H]2O)[C@H](O)[C@H](O)[C@H]1O [Naringin dihydrochalcone (81), Naringin dihydrochalcone]
1,000 | COc1ccc(CCC(=O)c2c(O)cc(O[C@@H]3O[C@H](CO)[C@@H](O)[C@H](O)[C@H]3O[C@@H]3O[C@@H](C)[C@H](O)[C@@H](O)[C@H]3O)cc2O)cc1O [Neohesperidin dihydrochalcone (82), Neohesperidin dihydrochalcone]
500 | C[C@@H]1O[C@@H](O[C@H]2O[C@@H]([C@@H](C)C3CC[C@@H]4[C@H]5CC(=O)[C@@H]6C[C@H](O[C@@H]7O[C@H](CO)[C@@H](O)[C@H](O)[C@H]7O[C@@H]7O[C@@H](C)[C@H](O)[C@@H](O)[C@H]7O)CC[C@]6(C)[C@@H]5CC[C@]34C)CC[C@@H]2C)[C@H](O)[C@H](O)[C@H]1O (stereo partly drawn) [Osladin (64), Osladin]
90 | CC1(C)[C@@H](O[C@@H]2O[C@H](C(=O)O)[C@@H](O)[C@H](O)[C@H]2O[C@@H]2O[C@H](C(=O)O)[C@@H](O)[C@H](O)[C@H]2O)CC[C@]2(C=O)[C@H]3CC[C@@H]4C5=C[C@@](C)(C(=O)O)CC[C@]5(C)CC[C@@]4(C)[C@]3(C)CC[C@@H]12 [Periandrin I (57), Periandrin I]
92 | CC1(C(=O)O)C=C2C3CCC4C5(CO)CCC(OC6OC(C(=O)O)C(O)C(O)C6OC6OC(C(=O)O)C(O)C(O)C6O)C(C)(C)C5CCC4(C)C3(C)CCC2(C)CC1 (stereo not drawn) [Periandrin III (59), Periandrin III]
220 | CC1(C(=O)O)C=C2C3CCC4C5(C=O)CCC(OC6OC(C(=O)O)C(O)C(O)C6OC6OCC(O)C(O)C6O)C(C)(C)C5CCC4(C)C3(C)CCC2(C)CC1 (stereo not drawn) [Periandrin V (61), Periandrin V]
400 | COc1ccc([C@H]2Cc3cccc(O)c3C(=O)O2)cc1O [Phyllodulcin (3), Phyllodulcin]
100 | C=C(C)C1CCC2(C)C(CC(OC3OCC(O)C(O)C3O)C3C(C(C)(O)C/C=C/C(C)(C)O)CCC32C)C1(C)CCC(=O)O (stereo not drawn) [Pterocaryoside B (63), Pterocaryoside B]
35 | Oc1ccc([C@H]2Oc3c(c(O)cc4c3[C@H]3c5c(O)cc(O)cc5O[C@@](c5ccc(O)cc5)(O4)[C@@H]3O)[C@H](c3c(O)cc(O)c4c3O[C@H](c3ccc(O)cc3)[C@@H](O)C4)[C@H]2O)cc1 [Selligueain A (96), Selligueain A]
